pKi: −log10 of the molar value.

This experiment has as its target Prothrombin (Homo sapiens, UniProt P00734). Nature of the experiment: Inhibition of human thrombin after 15 mins by standard chromogenic assay.
`NC(N)=NOCCNC(=O)Cc1c(Cl)ccc(NCC(F)(F)c2cccnc2)c1F` gave a pKi of 7.47. Regarding `N=C(N)NOCCNC(=O)Cc1c(Cl)ccc(NCC(F)(F)c2cccc3cccnc23)c1F`, the pKi was 8.57.

Molecule `CC(C)(CNc1ccc(Cl)c(CC(=O)NCCONC(=N)N)c1F)c1ccccn1` gave a pKi of 7.24. As for `CC(C)(CNc1ccc(Cl)c(CC(=O)NCCONC(=N)N)c1F)c1cccnc1`, the figure is 6.89.

Regarding `NC(N)=NOCCNC(=O)Cc1c(Cl)ccc(NCC(F)(F)c2cccc3cnccc23)c1F`, the pKi is 8.33. As for `NC(N)=NOCCNC(=O)Cc1c(Cl)ccc(NCC(F)(F)c2ccccn2)c1F`, the figure is 8.07; as for `N=C(N)NOCCNC(=O)Cc1c(Cl)ccc(NCC2(c3cccnc3)CC2)c1F`, 6.85.

As to `Cc1nc(N)ccc1CNC(=O)Cc1c(Cl)ccc(NCC(F)(F)c2ccc(Cl)cn2)c1F`, the pKi was 9.15. Under `N=C(N)NOCCNC(=O)Cc1c(Cl)ccc(NS(=O)(=O)c2ccccc2)c1F` stands 5.89. As to `N=C(N)NOCCNC(=O)Cc1c(Cl)ccc(NCC(F)(F)c2cnc3ccccc3c2)c1F`, the pKi was 6.77. As for `NC(N)=NOCCNC(=O)Cc1c(Cl)ccc(NCC(F)(F)c2ccc(Cl)cn2)c1F`, the figure is 8.74; as for `Cc1nc(N)ccc1CNC(=O)Cc1c(Cl)ccc(NCC(F)(F)c2ccc(Cl)c[n+]2[O-])c1F`, 9.05.

Take `Cc1nc(N)ccc1CNC(=O)Cc1c(Cl)ccc(NCC(F)(F)c2ccccc2)c1F`: the pKi is 7.99. As for `N=C(N)NOCCNC(=O)Cc1c(Cl)ccc(NCC2(c3ccccn3)CC2)c1F`, the figure is 7.24.
